From patent US11203576B2, “Aurora kinase and Janus kinase inhibitors for prevention of graft versus host disease” (H. LEE MOFFITT CANCER CENTER AND RESEARCH INSTITUTE, INC., priority 2016, dated 2021)

System: xenogeneic GVHD (NSG mice transplanted with human PBMCs)
Assay: Xenogeneic GVHD model
Type: in vivo
From the text: After transplantation and treatment with either AJI-100 or vehicle control, human T cells were isolated from recipient mouse spleens at day +14, stained for pH3Ser^10 or pSTAT3 (+IL-6 stimulation), and analyzed as described.
NOD scid gamma (NSG) mice (male or female, 6-24 weeks old) were purchased from Jackson Laboratory (Bar Harbor, Me., USA) and raised per an IACUC-approved protocol in adherence to the NIH Guide for the Care and Use of Laboratory Animals. Mice received either (i) alisertib (30 mg/kg daily), TG101348 (45 mg/kg twice a day), a combination of alisertib and TG101348, or vehicle (methylcellulose) by oral gavage or (ii) AJI-100 (50 mg/kg daily) or vehicle (50% polyethylene glycol, 15% 2-hydroxypropyl-b-cyclodextrin, and 10% DMSO in sterile saline) ip from day 0 to day +14.
Mice were monitored for GVHD clinical scores (K. R. Cooke et al., An experimental model of idiopathic pneumonia syndrome after bone marrow transplantation: I. The roles of minor H antigens and endotoxin. Blood 88, 3230 (1996)), weight, and premoribund status. As indicated, mice were euthanized on day +14 to study recipient spleen Tconv, Tregs, TH1, TH17, B cells, and T-cell signal transduction. Human CD4^+ Treg (CD25+, CD127^−, Foxp3^+), Tconv(CD25^+, CD127^+), TH1, TH17, and CD19^+ B cells residing in recipient spleens were quantified by flow cytometry. T-cell pH3 ser10 and PSTAT3 were evaluated by flow cytometry. IL-17 ELISPOTs were performed using isolated human T cells from recipient mouse spleen as described above. Tissue samples were prepared, stained (Ventana Medical Systems, Tucson, Ariz.), and imaged (Vista, Calif., USA) to identify human T-cells as previously described. All vertebrate animal work was IACUC-approved.

[1] = day +14, 50 mg/kg daily, vs vehicle

SMILES: NC(=O)c1ccc(Nc2ncc(F)c(Nc3ccccc3)n2)cc1 [bisanilinopyrimidine (II), 5-Fluoro-N4-phenyl-N2-[4-(4-carboxamide)phenyl]pyrimidine-2,4-diamine]
- overall survival (50 mg/kg daily i.p. day 0 to +14, 56 days of observation): 71.4%
- overall survival of the mice (AJI-100 50 mg/kg daily ip day 0 to +14, vs vehicle): significantly improved
- H3 ser10 phosphorylation in human T-cells harvested from mice [1]: less H3 ser10 phosphorylation
- pSTAT3+ human T cells harvested from recipient spleens [1]: significantly reduced
- H3 ser10 phosphorylation in human T-cells harvested from mice (day +14, 50 mg/kg daily, vs vehicle, listed as AJI-100): significantly reduced
- GVHD severity (pathology) in liver and lung (day +14, vs vehicle): significantly reduced
- Treg frequency in the liver (day +14, vs vehicle): similar
- absolute number of Tregs in recipient spleens (day +14, vs vehicle): significantly reduced
- absolute number of activated CD4+ Tconv in recipient spleens (day +14, vs vehicle): significantly reduced
- absolute number of total CD4+ T cells in recipient spleens (day +14, vs vehicle): significantly reduced
- absolute number of total spleen cells and human CD3+ T-cells in spleens (day +14, vs vehicle): similar
- percentage of CD4+ alloreactive Tconv in the spleen (day +14, vs vehicle): similar
- ratio of human Treg to CD4+ alloreactive/activated Tconv in recipient spleens (day +14, vs vehicle): significantly increased
- relative amount of human Tregs in the spleen (day +14, vs vehicle): significantly increased
- spleen-resident human TH1 T cells (day +14, vs vehicle): significantly reduced
- spleen-resident human TH17 T cells (day +14, vs vehicle): significantly reduced
- tissue-infiltrating human T cells in recipient liver (and lung) (day +14, vs vehicle): dramatically reduced
- tissue-infiltrating human T cells in recipient liver (and lung) (day +14, vs vehicle, listed as AJI-100): significantly decreased
- surviving mice with limited fur/skin changes without significant weight loss (day +56): 60%
- onset and severity of GVHD (dosing day 0 to +14, vs vehicle): reduced the severity of GVHD
- tolerability in mouse models (mouse, in vivo): tolerated
- average GVHD clinical scores (surviving treated mice at day +56): < 2
- CD8+ T cell and CD19+ B cell reconstitution (absolute numbers) (vs vehicle): suppressive effect
- frequencies of CD4+ and CD8+ T cells and CD19+ B cells (vs vehicle): similar
